Measured values published in patent US6534524B1, “Indazole compounds and pharmaceutical compositions for inhibiting protein kinases, and methods for their use” (Agouron Pharmaceuticals, Inc., priority 1999, dated 2003).
pIC50: −log10 of the molar value. Like-named read-outs stand apart in the source and are kept apart here.

Assays:
[1] = Determination of inhibitor concentration in mouse plasma after intraperitoneal and oral dosing; format: in vivo
Procedure: Blood collection was via ocular bleed at 0.5, 1, 4 hr with the final time point, 7 hour, via intracardiac puncture. The blood was centrifuged to collect plasma, which was then stored at −80° C. until analysis. Samples were prepared for analysis using an internal standard and sodium hydroxide. After vortexing, ethyl acetate was added and mixed for 15-20 minutes at ambient temperature. […] The samples were then analyzed via HPLC or LC-MS. Compound levels were quantitated by generating a standard curve of known compound concentration in mouse plasma.

[2] = system: human umbilical vein endothelial cells (HUVEC); assay: HUVEC proliferation assay (VEGF-stimulated, MTT); format: cell-based; details: for pIC50: Homo sapiens, HUVEC, + albumin, read-out: HUVEC + albumin IC50; for % inhibition: Library III, HUVEC proliferation, nominal concentration of 0.5 nM, crude reaction mixtures
[3] = PO, 10 mg/kg, vehicle PEG400:H2O pH 2.3 60:40
[4] = PO, 25 mg/kg, vehicle PEG400:H2O pH 2.3 30:70
[5] = female, PO, 25 mg/kg, vehicle PEG400:H2O pH 2.3 30:70, read-out: Cmin (7 hr conc.)
[6] = IP, 25 mg/kg, vehicle PEG400:H2O pH 2.3 60:40
[7] = PO, 50 mg/kg, vehicle PEG400:H2O pH 2.3 60:40
[8] = IP, 25 mg/kg, vehicle PEG400:H2O pH 2.3 30:70
[9] = PO, 50 mg/kg, vehicle PEG400:H2O pH 2.3 30:70
[10] = female, PO, 8 mg/kg, vehicle 0.5% CMC
[11] = female, PO, 8 mg/kg, vehicle 0.5% CMC, read-out: Cmax
[12] = female, PO, 8 mg/kg, vehicle 0.5% CMC, read-out: Cmin (7 hr conc.)
[13] = female, PO, 25 mg/kg, vehicle 0.5% CMC
[14] = female, PO, 25 mg/kg, vehicle 0.5% CMC, read-out: Cmax
[15] = female, PO, 25 mg/kg, vehicle 0.5% CMC, read-out: Cmin (7 hr conc.)
[16] = female, PO, 40 mg/kg, vehicle 0.5% CMC
[17] = female, PO, 40 mg/kg, vehicle 0.5% CMC, read-out: Cmax
[18] = female, PO, 40 mg/kg, vehicle 0.5% CMC, read-out: Cmin (7 hr conc.)
[19] = female, PO, 200 mg/kg, vehicle 0.5% CMC
[20] = female, PO, 200 mg/kg, vehicle 0.5% CMC, read-out: Cmax
[21] = female, PO, 200 mg/kg, vehicle 0.5% CMC, read-out: Cmin (7 hr conc.)

Cc1cccc(C(=O)Nc2cccc(Oc3ccc4c(/C=C/c5ccccc5)n[nH]c4c3)c2)c1 [5b]
AUClast [1, 3]: 61 ng·h/mL | plasma half-life (T1/2) [1, 3]: 3.1 h

CCn1nc(C)cc1C(=O)Nc1cccc(Oc2ccc3c(/C=C/c4cn(C)c(C)n4)n[nH]c3c2)c1 [Example 31(f), 6-[3-((1-Ethyl-3-methyl-1H-pyrazol]-5-yl)carboxanido)phenoxyl-3-E-[2-(1,2-dimethyl-1Himidazol-4-yl)ethenyl]-1H-indazole]
plasma half-life (T1/2) [1, 4]: 2.6 h | AUC(0-t) ([1]; female, PO, 25 mg/kg, vehicle PEG400:H2O pH 2.3 30:70): > 245000 ng·h/mL | Cmax ([1]; female, PO, 25 mg/kg, vehicle PEG400:H2O pH 2.3 30:70, read-out: Cmax): > 50000 ng/mL | concentration at 7 h [1, 5]: 9520 ng/mL

Cc1ccc2cc(NC(=O)c3ccccc3Sc3ccc4c(/C=C/c5ccccn5)n[nH]c4c3)ccc2n1 [Example 33(b)]
AUClast [1, 6]: 11245 ng·h/mL | Cmax [1, 6]: 1990 ng/mL | plasma half-life (T1/2) [1, 6]: 3.0 h | AUClast [1, 7]: 3925 ng·h/mL | Cmax [1, 7]: 1496 ng/mL | plasma half-life (T1/2) [1, 7]: 3.0 h | concentration at 7 h ([1]; female, IP, 25 mg/kg, vehicle PEG400:H2O pH 2.3 60:40, read-out: Cmin (7 hr conc.)): 902 ng/mL | concentration at 7 h ([1]; female, PO, 50 mg/kg, vehicle PEG400:H2O pH 2.3 60:40, read-out: Cmin (7 hr conc.)): 76 ng/mL

CC(C)NC(=O)c1ccccc1Sc1ccc2c(/C=C/c3ccccn3)n[nH]c2c1 [Example 35(b), 6-[2-(i-Propylcarbamoyl)phenylsulfanyl]-3-E-[2-(pyridin-2-yl)ethenyl]-1H-indazole]
AUClast [1, 8]: 2840 ng·h/mL | plasma half-life (T1/2) [1, 8]: 0.8 h | AUClast [1, 9]: 4048 ng·h/mL | plasma half-life (T1/2) [1, 9]: 0.8 h | concentration at 7 h ([1]; female, IP, 25 mg/kg, vehicle PEG400:H2O pH 2.3 30:70, read-out: Cmin (7 hr conc.)): 12 ng/mL | concentration at 7 h ([1]; female, PO, 50 mg/kg, vehicle PEG400:H2O pH 2.3 30:70, read-out: Cmin (7 hr conc.)): 13 ng/mL

O=C(NCCc1cccs1)c1ccccc1Sc1ccc2c(/C=C/c3ccccn3)n[nH]c2c1 [Example 35(hh), 6-[2-(2-(Thien-2-yl)ethylcarbamoyl)phenylsulfanyl]-3-E-[2-(pyridin-2-yl)ethenyl]-1H-indazole]
AUClast [1, 4]: 292 ng·h/mL | plasma half-life (T1/2) [1, 4]: 1.7 h | concentration at 7 h [1, 5]: 5 ng/mL

CN(O)C(=O)c1ccccc1Sc1ccc2c(/C=C/c3ccccn3)n[nH]c2c1 [Example 35(o), 6-[2-(N-Hydroxy-N-methylcarbamoyl)phenylsulfanyl]-3-E-[2-(pyridin-2-yl)ethenyl]-1H-indazole]
pIC50 [2]: < 7.00 | AUClast [1, 4]: 683 ng·h/mL | Cmax [1, 4]: 486 ng/mL | plasma half-life (T1/2) [1, 4]: 1.0 h | concentration at 7 h [1, 5]: 3 ng/mL

O=C(NCc1ccncc1)c1ccccc1Sc1ccc2c(/C=C/c3ccccn3)n[nH]c2c1 [Example 35(p), 6-[2-((Pyrid-4-yl)methylcarbamoyl)phenylsulfanyl]-3-E-[2-(pyridin-2-yl)ethenyl]-1H-indazole]
pIC50 [2]: < 7.52 | AUClast [1, 4]: 1435 ng·h/mL | plasma half-life (T1/2) [1, 4]: 1.3 h | concentration at 7 h [1, 5]: 5 ng/mL

Cc1cc(C(=O)Nc2cc(C(=O)c3ccc4c(/C=C/c5ccccn5)n[nH]c4c3)ccc2C)n(C)n1 [Example 41(hh), 6-[3-((1,3-Dimethyl-1H-pyrazol-5-yl)carboxaindo)-4-methylbenzoyl]-3-E-[2-(pyridin-2-yl)ethenyl]-1H-indazole]
AUClast [1, 4]: 5601 ng·h/mL | Cmax [1, 4]: 1526 ng/mL | plasma half-life (T1/2) [1, 4]: 7.9 h | concentration at 7 h [1, 5]: 405 ng/mL

Cc1cc(C(=O)Nc2cccc(C(=O)c3ccc4c(/C=C/c5ccccn5)n[nH]c4c3)c2)cc(Cl)n1 [Example 41(q), 6-[3-((2-Chloro-6-methylpyridin-4-yl)carboxanlido)benzoyl]-3-E-[2-(pyridin-2-yl)ethenyl]-1H-indazole]
plasma half-life (T1/2) [1, 4]: 5.2 h | AUC(0-t) ([1]; female, IP, 25 mg/kg, vehicle PEG400:H2O pH 2.3 30:70): > 27000 ng·h/mL

CCc1cc(C(=O)Nc2cccc(C(=O)c3ccc4c(/C=C/c5ccccn5)n[nH]c4c3)c2)n(C)n1 [Example 41(v), 6-[3-((3-Ethyl-1-methyl-1H-pyrazol-5-yl)carboxamido)benzoyl]-3-E-[2-(pyridin-2-yl)ethenyl]-1H-indazole]
AUClast [1, 4]: 10949 ng·h/mL | plasma half-life (T1/2) [1, 4]: 4.4 h | concentration at 7 h [1, 5]: 749 ng/mL

CC(C)COC(=O)Nc1cccc(C(=O)c2ccc3c(/C=C/c4ccccn4)n[nH]c3c2)c1 [Example 41(y)]
AUClast [1, 4]: Blq | Cmax [1, 4]: Blq | Cmin (7 hr conc.) [1, 4]: blq | plasma half-life (T1/2) [1, 4]: blq

CCn1nc(C)cc1C(=O)Nc1cccc(C(=O)c2ccc3c(/C=C/c4ccccn4)n[nH]c3c2)c1.Cl [Example 59(a), 6-[3-((1-Ethyl-3-methyl-1H-pyrazol-5-yl)carboxamido)benzoyl]-3-E-[2-(pyridin-2-yl)ethenyl]-1H-indazole Hydrochloride]
plasma half-life (T1/2) ([1]; PO, 8 mg/kg, vehicle 0.5% CMC): 1.5 h | plasma half-life (T1/2) ([1]; PO, 40 mg/kg, vehicle 0.5% CMC): 2.4 h | plasma half-life (T1/2) ([1]; PO, 200 mg/kg, vehicle 0.5% CMC): 9.4 h | AUC(0-t) [1, 10]: 7710 ng·h/mL | Cmax [1, 11]: 2490 ng/mL | concentration at 7 h [1, 12]: 122 ng/mL | AUC(0-t) [1, 13]: 50800 ng·h/mL | Cmax [1, 14]: 15900 ng/mL | concentration at 7 h [1, 15]: 1200 ng/mL | AUC(0-t) [1, 16]: 57200 ng·h/mL | Cmax [1, 17]: 13800 ng/mL | concentration at 7 h [1, 18]: 1880 ng/mL | AUC(0-t) [1, 19]: 156000 ng·h/mL | Cmax [1, 20]: 30000 ng/mL | concentration at 7 h [1, 21]: 12100 ng/mL

Cc1cc(C(=O)Nc2cccc(C(=O)c3ccc4c(/C=C/c5ccccn5)n[nH]c4c3)c2)n(C)n1.Cl [Example 59(b), 6-[3-((1,3-Dimethyl-1H-pyrazol-5-yl)carboxamido)benzoyl]-3-E-[2-(pyridin-2-yl)ethenyl]-1H-indazole Hydrochloride]
AUC(0-t) ([1]; female, PO, 50 mg/kg, vehicle CMC): 276000 ng·h/mL | concentration at 7 hr ([1]; female, PO, 50 mg/kg, vehicle CMC, read-out: Cmin (7 hr conc.)): 26900 ng/mL

CCn1nc(C)cc1C(=O)Nc1cc(Nc2ccc3c(/C=C/c4ccccn4)n[nH]c3c2)c(F)cc1C.Cl [Example 59(c), 6-[N-(5-((1-Ethyl-3-methyl-1H-pyrazol-5-yl)carboxamido)-2-fluoro-4-methylphenyl)amino]-3-E-[2-(pyridin-2-yl)ethenyl]-1H-indazole Hydrochloride]
AUC(0-t) ([1]; female, PO, 25 mg/kg, vehicle CMC): 327000 ng·h/mL | Cmax ([1]; female, PO, 25 mg/kg, vehicle CMC, read-out: Cmax): 50000 ng/mL

Cc1cc(C(=O)Nc2cc(Nc3ccc4c(/C=C/c5ccccn5)n[nH]c4c3)ccc2F)n(C)n1.Cl [Example 59(d), 6-[N-(3-((1,3-Dimethyl-1H-pyrazol-5-yl)carboxamido)4-fluoro-phenyl)amino]-3-E-[2-(pyridin-2-yl)ethenyl]-1H-indazole Hydrochloride]
AUC(0-t) [1, 10]: > 24700 ng·h/mL | Cmax [1, 11]: > 5000 ng/mL | concentration at 7 h [1, 12]: 1900 ng/mL | AUC(0-t) [1, 16]: > 32300 ng·h/mL | Cmax [1, 17]: > 5000 ng/mL | concentration at 7 h [1, 18]: 4140 ng/mL | AUC(0-t) [1, 19]: > 123000 ng·h/mL | Cmax [1, 20]: > 20000 ng/mL | concentration at 7 h [1, 21]: 12700 ng/mL

CCn1nc(C)cc1C(=O)Nc1cccc(Oc2ccc3c(/C=C/c4ccccn4)n[nH]c3c2)c1.Cl [Example 59(e), 6-[3-((1-Ethyl-3-methyl-1H-pyrazol-5-yl)carboxamido)phenoxy]-3-E-[2-(pyridin-2-yl)ethenyl]-1H-indazole Hydrochloride]
plasma half-life (T1/2) ([1]; PO, 25 mg/kg, vehicle 0.5% CMC): 21 h | AUC(0-t) [1, 13]: 12500 ng·h/mL | Cmax [1, 14]: 28800 ng/mL | concentration at 7 h [1, 15]: 2140 ng/mL

O=C(NC1CC1)c1ccccc1Sc1ccc2c(/C=C/c3ccccn3)n[nH]c2c1 [drawing 1069]
% inhibition [2]: 29%

C#CCNC(=O)c1ccccc1Sc1ccc2c(/C=C/c3ccccn3)n[nH]c2c1 [drawing 1123]
% inhibition [2]: 9%

O=C(Nc1ccccc1)c1ccccc1Sc1ccc2c(/C=C/c3ccccn3)n[nH]c2c1 [drawing 1131]
% inhibition [2]: 11%

O=C(NC1CCSC1=O)c1ccccc1Sc1ccc2c(/C=C/c3ccccn3)n[nH]c2c1 (stereo not shown) [drawing 1141]
% inhibition [2]: −8%

O=C(NCC1(O)CCCCC1)c1ccccc1Sc1ccc2c(/C=C/c3ccccn3)n[nH]c2c1 [drawing 1197]
% inhibition [2]: 2%
